Laboratory results taken from patent publication US12370235B2, “Synthetic, non-natural antimicrobial peptides inspired by Staphylococcus auricularis delta toxin” (University of Saskatchewan, priority 2021, dated 2025).
Ends that are not written are not given here.

Assays:
S. aureus ATCC 29213 = experiment: MIC, broth dilution; type: cell-based, Staphylococcus aureus; details: Table 5; STIP3 variants, highest concentration 100 μg/mL
In short: (§1)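 Peptides (95% purity) were serially diluted 2-fold and mixed with bacteria diluted to OD 6×10^−4 in cation-adjusted Mueller Hinton broth. Standing cultures were incubated overnight at 37° C. MIC was the lowest peptide concentration with no observed growth.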

[1] = tested on: S. aureus ATCC 33592 (MRSA SCCmec type III); experiment: MIC, broth dilution; type: cell-based, Staphylococcus aureus; details: Table 5; STIP3 variants, highest concentration 100 μg/mL
In short: as §1

[2] = tested on: S. aureus ATCC BAA-1683 (MRSA SCCmec type IV); experiment: MIC, broth dilution; type: cell-based, Staphylococcus aureus; details: Table 5; STIP3 variants, highest concentration 100 μg/mL
In short: as §1

[3] = tested on: S. aureus ATCC BAA-2094 (MRSA SCCmec type V); experiment: MIC, broth dilution; type: cell-based, Staphylococcus aureus; details: Table 5; STIP3 variants, highest concentration 100 μg/mL
In short: as §1

[4] = tested on: S. aureus ATCC BAA-2313 (MRSA SCCmec type XI); experiment: MIC, broth dilution; type: cell-based, Staphylococcus aureus; details: Table 5; STIP3 variants, highest concentration 100 μg/mL
In short: as §1

[5] = tested on: S. aureus ATCC BAA-41 (MRSA SCCmec type II); experiment: MIC, broth dilution; type: cell-based, Staphylococcus aureus; details: Table 5; STIP3 variants, highest concentration 100 μg/mL
In short: as §1

[6] = tested on: S. aureus ATCC BAA-42 (MRSA SCCmec type VI); experiment: MIC, broth dilution; type: cell-based, Staphylococcus aureus; details: Table 5; STIP3 variants, highest concentration 100 μg/mL
In short: as §1

[7] = tested on: S. aureus ATCC BAA-44 (MRSA SCCmec type I); experiment: MIC, broth dilution; type: cell-based, Staphylococcus aureus; details: Table 5; STIP3 variants, highest concentration 100 μg/mL
In short: as §1

[8] = tested on: Mannheimia haemolytica ATCC 33393; experiment: MIC, broth dilution; type: cell-based; details: Table 11; highest concentration 25 μg/mL
In short: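 Peptides (95% purity) in 2-fold dilution series were mixed with M. haemolytica diluted to OD 6×10^−4 in cation-adjusted Mueller Hinton broth and incubated standing overnight at 37 °C. MIC was the lowest concentration with no visible growth.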

C. albicans MYA-2876 = experiment: MIC, YPD broth; type: cell-based, Candida albicans; details: Table 8
In short: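 Minimum inhibitory concentrations against Candida albicans were determined in YPD broth (10 g/L yeast extract, 20 g/L peptone, 20 g/L dextrose) using peptides of 95% purity. A 180 μl volume of diluted yeast was combined with 20 μl of peptide in a 2-fold dilution series in 96-well plates, with sterile water as control, then incubated standing overnight at 37° C.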

[9] = tested on: Candida duobushaemulonii AR 391; experiment: MIC, YPD broth, CDC and FDA AR Candida isolate panel; type: cell-based; details: Table 9 below the line: only 200 or 100 μg/mL tested; values reported as 100 are ≤100 μg/mL
Protocol: (§2) MIC determination. MICs were measured using peptides with 95% purity. For bacterial studies, cation-adjusted Mueller Hinton (MH) broth was used as the growth medium whereas Yeast Peptone Dextrose (YPD; 10 g/L yeast extract, 20 g/L peptone, 20 g/L dextrose) was used for Candida spp. and other yeast. Microorganisms were diluted to an optical density of […] in MH or YPD broth and a 180 μl volume was mixed with 20 μl of peptide arrayed as a 2-fold dilution series in a flat-bottom 96-well microtitre plate. A control was performed using 20 μl of sterile water. Plates were incubated as standing cultures overnight at 37° C.

[10] = tested on: Candida duobushaemulonii AR 392; experiment: as above; type: cell-based; details: Table 9 below the line: only 200 or 100 μg/mL tested; values reported as 100 are ≤100 μg/mL
Protocol: as §2

[11] = tested on: Candida duobushaemulonii AR 394; experiment: as above; type: cell-based; details: Table 9 below the line: only 200 or 100 μg/mL tested; values reported as 100 are ≤100 μg/mL
Protocol: as §2

[12] = tested on: Candida haemulonii AR 393; experiment: as above; type: cell-based; details: Table 9 below the line: only 200 or 100 μg/mL tested; values reported as 100 are ≤100 μg/mL
Protocol: as §2

[13] = tested on: Candida haemulonii AR 395; experiment: as above; type: cell-based; details: Table 9 below the line: only 200 or 100 μg/mL tested; values reported as 100 are ≤100 μg/mL
Protocol: as §2

Candida krusei AR 397 = experiment: as above; type: cell-based; details: Table 9 below the line: only 200 or 100 μg/mL tested; values reported as 100 are ≤100 μg/mL
Protocol: as §2

[14] = tested on: Candida lusitaniae AR 398; experiment: as above; type: cell-based; details: Table 9 below the line: only 200 or 100 μg/mL tested; values reported as 100 are ≤100 μg/mL
Protocol: as §2

Kodamae ohmeri AR 396 = experiment: as above; type: cell-based; details: Table 9 below the line: only 200 or 100 μg/mL tested; values reported as 100 are ≤100 μg/mL
Protocol: as §2

[15] = tested on: Saccharomyces cerevisiae AR 399; experiment: as above; type: cell-based; details: Table 9 below the line: only 200 or 100 μg/mL tested; values reported as 100 are ≤100 μg/mL
Protocol: as §2

[16] = tested on: Saccharomyces cerevisiae AR 400; experiment: as above; type: cell-based; details: Table 9 below the line: only 200 or 100 μg/mL tested; values reported as 100 are ≤100 μg/mL
Protocol: as §2

Sequence | MIC S. aureus ATCC 29213 (S. aureus ATCC 29213) | MIC S. aureus ATCC 33592 (III) [1] | MIC S. aureus ATCC BAA 1683 (IV) [2] | MIC S. aureus ATCC BAA 2094 (V) [3] | MIC S. aureus ATCC BAA 2313 (XI) [4] | MIC S. aureus ATCC BAA 41 (II) [5] | MIC S. aureus ATCC BAA 42 (VI) [6] | MIC S. aureus ATCC BAA 44 (I) [7] | MIC (μg/mL) M. haemolytica [8] | MIC C. albicans MYA-2876 (C. albicans MYA-2876) | MIC (μg/mL) Candida duobushaemulonii AR 391 [9] | MIC (μg/mL) Candida duobushaemulonii AR 392 [10] | MIC (μg/mL) Candida duobushaemulonii AR 394 [11] | MIC (μg/mL) Candida haemulonii AR 393 [12] | MIC (μg/mL) Candida haemulonii AR 395 [13] | MIC (μg/mL) Candida krusei AR 397 (Candida krusei AR 397) | MIC (μg/mL) Candida lusitaniae AR 398 [14] | MIC (μg/mL) Kodamae ohmeri AR 396 (Kodamae ohmeri AR 396) | MIC (μg/mL) Saccharomyces cerevisiae AR 399 [15] | MIC (μg/mL) Saccharomyces cerevisiae AR 400 [16]
TVGGLVKWILDTVKKFI [STIP3-5, TVGGLVKWILDTVKKFI] | 50 mg/L | 25 mg/L | 25 mg/L | 25 mg/L | 25 mg/L | 25 mg/L | 12.5 mg/L | 50 mg/L | 25 µg/mL | 100 mg/L | > (values below the line were determined using two concentrations of peptide 200 or 100 μg/mL) | > (values below the line were determined using two concentrations of peptide 200 or 100 μg/mL) | > (values below the line were determined using two concentrations of peptide 200 or 100 μg/mL) | > (values below the line were determined using two concentrations of peptide 200 or 100 μg/mL) | > (values below the line were determined using two concentrations of peptide 200 or 100 μg/mL) | ≤ 100 µg/mL | ≤ 100 µg/mL | > (values below the line were determined using two concentrations of peptide 200 or 100 μg/mL) | ≤ 100 µg/mL | ≤ 100 µg/mL
TVGGLVKWILDTVKKFK [STIP3-7, TVGGLVKWILDTVKKFK] | > (no inhibition was observed at the highest concentration of peptide tested: 100 μg/mL for the STIP3 variants) | > (no inhibition was observed at the highest concentration of peptide tested: 100 μg/mL for the STIP3 variants) | > (no inhibition was observed at the highest concentration of peptide tested: 100 μg/mL for the STIP3 variants) | > (no inhibition was observed at the highest concentration of peptide tested: 100 μg/mL for the STIP3 variants) | > (no inhibition was observed at the highest concentration of peptide tested: 100 μg/mL for the STIP3 variants) | > (no inhibition was observed at the highest concentration of peptide tested: 100 μg/mL for the STIP3 variants) | > (no inhibition was observed at the highest concentration of peptide tested: 100 μg/mL for the STIP3 variants) | > (no inhibition was observed at the highest concentration of peptide tested: 100 μg/mL for the STIP3 variants) | 25 µg/mL | 50 mg/L | > (values below the line were determined using two concentrations of peptide 200 or 100 μg/mL) | > (values below the line were determined using two concentrations of peptide 200 or 100 μg/mL) | > (values below the line were determined using two concentrations of peptide 200 or 100 μg/mL) | > (values below the line were determined using two concentrations of peptide 200 or 100 μg/mL) | > (values below the line were determined using two concentrations of peptide 200 or 100 μg/mL) | ≤ 100 µg/mL | ≤ 100 µg/mL | > (values below the line were determined using two concentrations of peptide 200 or 100 μg/mL) | ≤ 100 µg/mL | ≤ 100 µg/mL
TVGGLVKWILDTVKKFW [STIP3-6, TVGGLVKWILDTVKKFW] | 12.5 mg/L | 12.5 mg/L | 12.5 mg/L | 12.5 mg/L | 12.5 mg/L | 12.5 mg/L | 12.5 mg/L | 25 mg/L | 25 µg/mL | 50 mg/L | > (values below the line were determined using two concentrations of peptide 200 or 100 μg/mL) | > (values below the line were determined using two concentrations of peptide 200 or 100 μg/mL) | > (values below the line were determined using two concentrations of peptide 200 or 100 μg/mL) | > (values below the line were determined using two concentrations of peptide 200 or 100 μg/mL) | > (values below the line were determined using two concentrations of peptide 200 or 100 μg/mL) | ≤ 100 µg/mL | ≤ 100 µg/mL | > (values below the line were determined using two concentrations of peptide 200 or 100 μg/mL) | ≤ 100 µg/mL | ≤ 100 µg/mL
TVGGLVKWILDVVKKFA [STIP3-9, TVGGLVKWILDVVKKFA] | 25 mg/L | 25 mg/L | 25 mg/L | 25 mg/L | 25 mg/L | 35 mg/L | 25 mg/L | 25 mg/L | 25 µg/mL | 50 mg/L | > (values below the line were determined using two concentrations of peptide 200 or 100 μg/mL) | > (values below the line were determined using two concentrations of peptide 200 or 100 μg/mL) | > (values below the line were determined using two concentrations of peptide 200 or 100 μg/mL) | > (values below the line were determined using two concentrations of peptide 200 or 100 μg/mL) | > (values below the line were determined using two concentrations of peptide 200 or 100 μg/mL) | ≤ 100 µg/mL | ≤ 100 µg/mL | > (values below the line were determined using two concentrations of peptide 200 or 100 μg/mL) | ≤ 100 µg/mL | ≤ 100 µg/mL
